Data published in patent US20260284046A1, “PYRIDAZINE COMPOUNDS FOR TREATMENT OF FIBROTIC DISEASES” (GEORG-AUGUST-UNIVERSITAET GOETTINGEN STIFTUNG OEFFENTLICHEN …, priority 2023, published 2026).

Assays:
[1] = test system: human lung fibroblast MRCVI; assay: ELISA of secreted pro-collagen I alpha 1, human lung fibroblast MRCVI; format: cell-based; conditions: 48 h, 250 μg
Protocol: (§1) Compounds reconstitution and stock solution: Prior to treatment, DMSO was diluted in PMS until 0.1% DMSO was made. Each compound was solved in 0.1% DMSO (3: 2.5 mg/mL, 1: 2.5 mg/mL, 10: 1 mg/mL, 5: 1 mg/mL, 7: 0.6 mg/mL, 16: 1 mg/mL 17: 1 mg/mL, 44: 0.6 mg/mL, 36: 1 mg/mL.
(§2) Next the different stock solution with 150 μg and 250 μg of each compound per 1 ml culture solution was made by adding the 0.1% DMSO compound solution in the right amount to culture solution (DMEM with 10% FCS and 1% penicillin-streptomycin).
As cell line MRCV1 was used, which is an immortalized cell line originated from human lung fibroblast, bought in 2001.
The cell line was thawed and cultured in Dulbecco's modified Eagle's medium (DMEM, Gibcon, USA) supplemented with 10% fetal bovine serum (FBS, Gibco, Germany) and 1% penicillin-streptomycin (PS, Gibco, USA) at 37° C. in a humidified atmosphere with 5% CO2 until a sufficient number of cells were culture in T75 culture bottles. After reaching a confluence of 80% to 90%, the cells were separated using trypsin and counted. Next 100.000 cells were planted in each well of a 6 well plate in replicates, washed and the DMEM solution with 150 μg and 250 μg/ml substance/DMEM and DMEM with no substance as control was added.
(§3) After 48 h and after 72 h 100 μl supernatant of each well was taken, labelled and frozen at −20° degree Celsius. Prior to perform ELISA the medium was depending on the cell line diluted 1:50 or 1:100 with PBS, otherwise the concentration of collagen fibers was too high to be measured.
The medium containing the secretion of the human lung fibroblast MRCVI was collected after 48 h and 72 h treatment. Secretion of pro-collagen 1 was assessed with human pro-collagen I alpha 1 DuoSet ELISA (R&D systems, USA) To prepare the Elisa plate, Human pro-Collagen I α capture antibody was diluted in ELISA plate-coating buffer at 4 μg/mL working concentration. 100 μl of diluted Capture antibody was added to 96-well microplates and incubated over night at room temperature. After three times washing with Wash Buffer, microplates were blocked by adding 300 μl of Reagent Diluent for 1 hour at room temperature. To proceed the ELISA Human pro-collagen I α1 Standards were diluted in Reagent Diluent (range between […]) and 100 μl of standards or conditioned mediums were added to designated wells. Microplates were incubated at room temperature for 2 hours. Human Pro-collagen I α1 Detection Antibody was prepared in Reagent Diluent at […] working concentration and 100 μl of diluted Detection Antibody was applied for 2 hours at room temperature after extensive washing. Then, working solution of Streptavidin-HRP with Reagent Diluent was prepared by diluting 1:40 and added into each well. After 20 minutes at room temperature incubation, microplates were washed and applied with 100 μl of Substrate Solution for 20 minutes followed by Stop Solution after washing. Finally, signals were measured at 450 nm absorbance by PHomo Microplate Reader (Autobio, China) The amount of pro-collagen 1 was quantified by extrapolating the signal into a linear range of a pro-collagen 1 standard curve. Screening compounds were typically tested at concentration of 150 and 250 μg/mL. The dose response data for each compound and the different cell lines were obtained by nonlinear regression analysis using Prism 9 software (GraphPad, La Jolla, USA).

[2] = test system: human dermal fibroblasts HRO159N; assay: ELISA of secreted pro-collagen I alpha 1, human dermal fibroblasts HRO159N; format: cell-based; conditions: 48 h, 250 μg
Protocol: as §1, §2
Three different cell lines were used for the experiments. GM637 is an immortalized cell line originated from human skin fibroblasts, bought in 2001, UKE1 and […] are cell lines originated from human dermal fibroblasts (dog ear) nurtured from patients, between 60 and 80 years old being completely anonymized at the clinic for dermatology, Rostock.
The cells lines were thawed and were cultured in Dulbecco's modified Eagle's medium (DMEM, Gibcon, USA) supplemented with 10% fetal bovine serum (FBS, Gibco, Germany) and 1% penicillin-streptomycin (PS, Gibco, USA) at 37° C. in a humidified atmosphere with 5% CO2 until a sufficient number of cells were culture in T75 culture bottles. After reaching a confluence of 80% to 90%, the cells were separated using trypsin and counted. Next 100.000 cells were planted in each well of a 6 well plate in replicates, washed and the DMEM solution with 150 μg and 250 μg/ml substance/DMEM and DMEM with no substance as control was added.
as §3
The media containing the secretion of the different human dermal fibroblasts GM637, UKE1, and HRO159N were collected after 48 h and 72 h treatment. Secretion of pro-collagen 1 was assessed with human pro-collagen I alpha 1 DuoSet ELISA (R&D systems, USA) To prepare the Elisa plate, Human pro-Collagen I α capture antibody was diluted in ELISA plate-coating buffer at 4 μg/mL working concentration. 100 μl of diluted Capture antibody was added to 96-well microplates and incubated over night at room temperature. After three times washing with Wash Buffer, microplates were blocked by adding 300 μl of Reagent Diluent for 1 hour at room temperature. To proceed the ELISA Human pro-collagen I α1 Standards were diluted in Reagent Diluent (range between […]) and 100 μl of standards or conditioned mediums were added to designated wells. Microplates were incubated at room temperature for 2 hours. Human Pro-collagen I α1 Detection Antibody was prepared in Reagent Diluent at […] working concentration and 100 μl of diluted Detection Antibody was applied for 2 hours at room temperature after extensive washing. Then, working solution of Streptavidin-HRP with Reagent Diluent was prepared by diluting 1:40 and added into each well. After 20 minutes at room temperature incubation, microplates were washed and applied with 100 μl of Substrate Solution for 20 minutes followed by Stop Solution after washing. Finally, signals were measured at 450 nm absorbance by PHomo Microplate Reader (Autobio, China) The amount of pro-collagen 1 was quantified by extrapolating the signal into a linear range of a pro-collagen 1 standard curve. Screening compounds were typically tested at concentration of 150 and 250 μg/mL. The dose response data for each compound and the different cell lines were obtained by nonlinear regression analysis using Prism 9 software (GraphPad, La Jolla, USA).

`c1ccc2c(c1)cnn1nnnc21` [Compound 1, Tetrazolo[5,1-a]phthalazine] was tested, and the “collagen reduction percentage in comparison to the standard (100%)” value (from here on “collagen reduction percentage … (100%)”) [1] was 78% and the “collagen reduction percentage … (100%)” value [2] was 57%.
For `COc1nn2c(C)nnc2c2ccccc12` [Compound 3, 6-Methoxy-3-methyl-1,2,4-triazolo[3,4-a]phthalazine], the “collagen reduction percentage … (100%)” value [1] was 11% and the “collagen reduction percentage … (100%)” value [2] was 82%.
With `[2H]C([2H])([2H])c1nnc2c3ccccc3cnn12` [Compound 7, 3-D3-Methyl-1,2,4-triazolo[3,4-a]phthalazine] the “collagen reduction percentage … (100%)” value [1] was 9% and the “collagen reduction percentage … (100%)” value [2] was 43%.
`c1ccc2c(c1)cnn1cnnc21` [Compound 10, 1,2,4-Triazolo[3,4-a]phthalazine] was tested, and the “collagen reduction percentage … (100%)” value [1] was 52%.
With `Cc1nnc2c3cscc3cnn12` [Compound 16, 3-Methylthieno[3,4-d][1,2,4]triazolo[4,3-b]pyridazine] the “collagen reduction percentage … (100%)” value [1] was 43% and the “collagen reduction percentage … (100%)” value [2] was 79%.
With `c1nn2nnnc2c2cscc12` [Compound 17, Tetrazolo[1,5-b]thieno[3,4-d]pyridazine] the “collagen reduction percentage … (100%)” value [1] was 16% and the “collagen reduction percentage … (100%)” value [2] was 34%.
In the case of `Cc1nnc2c3ccc(C(F)(F)F)cc3cnn12` [Compound 36, 3-Methyl-8-(trifluoromethyl)-[1,2,4]triazolo[3,4-a]phthalazine], the “collagen reduction percentage … (100%)” value [1] is reported as 68%.
`CC(C)Oc1nn2nnnc2c2c(Cl)cccc12` [Compound 44, 10-chloro-6-isopropoxytetrazolo[5,1-a]phthalazine] was tested, and the “collagen reduction percentage … (100%)” value [2] was 72%.
